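Protocol summary: plate cells (96-well), add compound at 5 concentrations, incubate 48 h, interpolate endpoints linearly. Here, GI50 denotes the concentration required for 50% inhibition of growth. TGI: total growth inhibition.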
How the values were obtained:
Assay in all cases: NCI-60 cell line screen, 48 h
[1] = system: 786-0 renal
[2] = system: A498 renal
[3] = system: A549 NSCLC
[4] = system: ACHN renal
[5] = system: BT-549 breast
[6] = system: CAKI-1 renal
[7] = system: COLO 205 colon
[8] = system: DU-145 prostate
[9] = system: EKVX NSCLC
[10] = system: HCC-2998 colon
[11] = system: HCT-116 colon
[12] = system: HCT-15 colon
[13] = system: HL-60(TB) leukemia
[14] = system: HOP-62 NSCLC
[15] = system: HOP-92 NSCLC
[16] = system: HS 578T breast
[17] = system: HT29 colon
[18] = system: IGROV1 ovarian
[19] = system: K-562 leukemia
[20] = system: KM12 colon
[21] = system: LOX IMVI melanoma
[22] = system: M14 melanoma
[23] = system: MCF7 breast
[24] = system: MDA-MB-231 breast
[25] = system: MDA-MB-435
[26] = system: NCI-H226 lung
[27] = system: NCI-H23 lung
[28] = system: NCI-H460 lung
[29] = system: NCI-H522 lung
[30] = system: NCI/ADR-RES ovarian
[31] = system: OVCAR-3 ovarian
[32] = system: OVCAR-5 ovarian
[33] = system: OVCAR-8 ovarian
[34] = system: PC-3 prostate
[35] = system: RPMI-8226 leukemia
[36] = system: RXF 393 renal
[37] = system: SF-268 CNS
[38] = system: SF-295 CNS
[39] = system: SF-539 CNS
[40] = system: SK-MEL-2 melanoma
[41] = system: SK-MEL-28 melanoma
[42] = system: SK-MEL-5 melanoma
[43] = system: SK-OV-3 ovarian
[44] = system: SN12C renal
[45] = system: SNB-19 CNS
[46] = system: SR leukemia
[47] = system: SW-620 colon
[48] = system: T-47D breast
[49] = system: TK-10 renal
[50] = system: U251 CNS
[51] = system: UACC-257 melanoma
[52] = system: UACC-62 melanoma
[53] = system: UO-31 renal

COc1cc2c(/C=C3/C(=O)Nc4c3ccc3ccccc43)c(Cl)[nH]c2cc1C was tested, and the GI50 [1] was 59.8 nM, the TGI [1] was over 24200 nM and the GI50 [2] was over 50000 nM. The TGI [2] was over 50000 nM, the GI50 [3] was 44.3 nM and the TGI [3] was 778 nM. It also gave a GI50 [4] of 26.1 nM, a TGI [4] of 6920 nM and a GI50 [5] of 25.4 nM. The TGI [5] was over 50000 nM, the GI50 [6] was 8.94 nM and the GI50 [7] was 71.5 nM. The GI50 [8] was 165 nM, the TGI [8] was over 15700 nM and the GI50 [9] was 222 nM. For the same compound, the TGI [9] was over 36300 nM, the GI50 [10] was under 5 nM and the TGI [10] was under 5 nM. It also gave a GI50 [11] of 7.8 nM, a GI50 [12] of 42.7 nM and a TGI [12] of 143 nM. It also gave a GI50 [13] of 11.5 nM, a TGI [13] of 661 nM and a GI50 [14] of 14.4 nM. It also gave a TGI [14] of 4080 nM, a TGI [15] of over 31100 nM and a GI50 [16] of 289 nM. It also gave a GI50 [17] of 24.6 nM, a TGI [17] of over 50000 nM and a GI50 [18] of 12.5 nM. It also gave a GI50 [19] of under 5 nM, a TGI [19] of 580 nM and a GI50 [20] of 12.4 nM. The GI50 [21] was 5.48 nM, the TGI [21] was 30.4 nM and the GI50 [22] was 11.9 nM. The TGI [22] was 32 nM, the GI50 [23] was 34.2 nM and the TGI [23] was over 50000 nM. For the same compound, the GI50 [24] was 36.6 nM, the GI50 [25] was 6.18 nM and the TGI [25] was 23.8 nM. The GI50 [26] was 249 nM, the TGI [26] was 33200 nM and the GI50 [27] was 15.2 nM. The TGI [27] was 4590 nM, the GI50 [28] was 24.4 nM and the TGI [28] was over 21800 nM. For the same compound, the GI50 [29] was 12.3 nM, the GI50 [30] was 13.9 nM and the TGI [30] was 1090 nM. The GI50 [31] was 8.54 nM, the TGI [31] was 29.4 nM and the GI50 [32] was 10200 nM. For the same compound, the TGI [32] was over 50000 nM, the GI50 [33] was 17.6 nM and the TGI [33] was 1820 nM. For the same compound, the GI50 [34] was 15.2 nM, the TGI [34] was over 16800 nM and the GI50 [35] was 14.4 nM. For the same compound, the GI50 [36] was 99.9 nM, the TGI [36] was 33400 nM and the GI50 [37] was 21.8 nM. It also gave a TGI [37] of over 14600 nM, a GI50 [38] of 7.61 nM and a TGI [38] of 23.7 nM. The GI50 [39] was 10.6 nM, the TGI [39] was 119 nM and the GI50 [40] was 872 nM. The TGI [40] was over 30100 nM, the GI50 [41] was 17300 nM and the TGI [41] was over 50000 nM. For the same compound, the GI50 [42] was 103 nM, the TGI [42] was 284 nM and the GI50 [43] was 36.4 nM. The TGI [43] was over 50000 nM, the GI50 [44] was 71 nM and the TGI [44] was over 19600 nM. For the same compound, the GI50 [45] was 40.2 nM, the TGI [45] was over 50000 nM and the GI50 [46] was under 5 nM. It also gave a TGI [46] of under 5 nM, a GI50 [47] of 78.1 nM and a TGI [47] of over 50000 nM. It also gave a GI50 [48] of over 50000 nM, a TGI [48] of over 50000 nM and a GI50 [49] of 30500 nM. The TGI [49] was over 50000 nM, the GI50 [50] was 55.9 nM and the TGI [50] was 9940 nM. For the same compound, the GI50 [51] was 316 nM, the TGI [51] was over 50000 nM and the GI50 [52] was 11.9 nM. It also gave a TGI [52] of over 19800 nM, a GI50 [53] of 21.6 nM and a TGI [53] of over 34100 nM.
